Experimental data taken from PMC9295807 (2022).
One block for each compound: values may come before it.

Key:
Test in all cases: in-line probing
[1] = test system: 92 allB (RNA, riboswitch) GGCAGAAUAAGCUCUUGUAUAAGCUCAUUAAUCCGGUUUGAGCGUUUCGACCAGGCGACCGUAAAUUGCCCCAGGCUACAAGAGGUGCAGGAAA; conditions: 100 mM K+, 20 mM Mg2+, 100 mM Tris-HCl pH 8.3, room temperature, ~40 h
[2] = test system: 92 PRT (RNA, riboswitch) GGAAUCAAACAUCUCUUGUAUAAGCUCGUUAAUUUGGAAUGAGCGUAUCUACAGGCAACCGUAAAUUGCCCCAGGCUACAAGAGGCCAGACAAG; conditions: 100 mM K+, 20 mM Mg2+
[3] = test system: 94 nuc (RNA, riboswitch) GGAAAAAAAAUUAUUUUUCGUAUAUCCUUAAUGAUAUGGUUUAAGGGCAAUACAUAGAAACCACAAAUUUCUUACUGCGAAAAAUAUGCUUCUUUA; conditions: 100 mM K+, 20 mM Mg2+; 100 mM Tris-HCl pH 8.3, room temperature, ~40 h

KD [1]: ~ 36.5 µM | binding ([2]; 100 mM Tris-HCl pH 8.3, room temperature, ~40 h, 100 µM compound): no
Structure (SMILES): O=c1[nH]c(=O)c2[nH]cnc2[nH]1

binding ([1]; 100 µM compound): no | KD [2]: < 8.3 nM
Structure (SMILES): Nc1nc2[nH]cnc2c(=O)[nH]1

KD [3]: ~ 1.5 μM
Structure (SMILES): Nc1nc2c(ncn2[C@H]2C[C@H](O)[C@@H](CO)O2)c(=O)[nH]1
